Measurements published in patent US20260207794A1, “NOVEL COMPOUNDS FOR DIAGNOSIS” (AC IMMUNE SA, priority 2022, published 2026).
Where a name gives a salt, the structure may show the parent alone.

Target: T1, PD brain-derived alpha-synuclein aggregates (Homo sapiens, UniProt P37840)
T1 construct: from tissue; host or cells: human PD donor brain, sarkosyl-insoluble pellet
Test: Micro-radiobinding competition assay
Format: binding
Settings: for Competition at 100 nM (%): 100 nM example compound; for Competition at 100 nM (%) / Competition at 1 μM (%): competition over [3H]-alpha-syn reference ligand (20 nM or 30 nM), human PD brain-derived a-syn aggregates; for Competition at 1 μM (%): 1 μM example compound; for Ki: mean of two independent experiments, PD brain-derived homogenates from two different donors
Description: The procedure was adapted from the protocol described in Spillantini et al., 1998. Frozen tissue blocks from PD donors were thawed on ice and homogenized using a glass dounce homogenizer. The homogenate was then centrifuged at 11,000×g (12,700 RPM) in an ultracentrifuge (Beckman, XL100K) for 20 minutes at 4° C. using a pre-cooled 70.1 rotor (Beckman, 342184). Pellets were resuspended in extraction buffer [10 mM Tris-HCl pH 7.4, 10% sucrose, 0.85 M NaCl, 1% protease inhibitor (Calbiochem 539131), 1 mM EGTA, 1% phosphatase inhibitor (Sigma P5726 and P0044)] and centrifuged at 15,000×g (14,800 RPM, a 70.1 Ti rotor) for 20 minutes at 4° C. Pellets were discarded and sarkosyl (20% stock solution, Sigma L7414) was added to the supernatants to a final concentration of 1% and stirred at room temperature for one hour. This solution was then centrifuged at 100,000×g (38,000 RPM, 70.1 Ti rotor) for one hour at 4° C. Pellets containing enriched alpha-synuclein aggregates were resuspended in PBS per gram of brain initially used and stored at −80° C. until use.
PD brain-derived alpha-synuclein aggregates were spotted onto microarray slides. The slides were incubated with [^3H]-alpha-synuclein reference at 20 nM or 30 nM and the example compounds (non-radiolabelled) at 1 μM and 100 nM. In some cases, the non-radiolabelled example compounds were further assessed for a range of different concentrations, varying from 0.05 nM to 2 μM. After incubation, slides were washed and scanned by a real-time autoradiography system (BeaQuant, ai4R). Quantification of signal was performed by using the image analysis software Beamage (ai4R).
Non-specific signal was determined with an excess of non-radiolabelled alpha-syn reference compound (2 μM) and specific binding was calculated by subtracting the non-specific signal from the total signal. Competition was calculated as percentage, where 0% was defined as the specific binding in the presence of vehicle and 100% as the values obtained in the presence of excess of the non-radiolabelled alpha-syn reference compound. Ki values were calculated in GraphPad Prism7 by applying a nonlinear regression curve fit using a one site, specific binding model. All measurements were performed with at least two technical replicates. For compounds tested in more than one experiment, the mean of the replicates or Ki values in independent experiments is reported.

| Compound | Competition at 100 nM (%) | Competition at 1 μM (%) | Ki [nM] |
| --- | --- | --- | --- |
| O=C1N(c2cccnc2)Cc2cc(-c3ccc(N4CC[C@@H](F)C4)nc3)cn21 [Example 1, (R)-6-(6-(3-fluoropyrrolidin-1-yl)pyridin-3-yl)-2-(pyridin-3-yl)-1H-pyrrolo[1,2-c]imidazol-3(2H)-one Hydrochloride] | 75 | 95 |  |
| O=C1N(c2cccnc2)Cc2nc(-c3ccc(N4CC[C@@H](F)C4)nc3)cn21 [Example 2, (R)-2-(6-(3-fluoropyrrolidin-1-yl)pyridin-3-yl)-6-(pyridin-3-yl)-6,7-dihydro-5H-imidazo[1,5-a]imidazol-5-one Hydrochloride] | 63 | 86 | 124 |
| O=C1N(c2cccnc2)Cc2nc(-c3ccc(N4CC[C@H](F)C4)nc3)cn21 [Example 3, (S)-2-(6-(3-fluoropyrrolidin-1-yl)pyridin-3-yl)-6-(pyridin-3-yl)-6,7-dihydro-5H-imidazo[1,5-a]imidazol-5-one Hydrochloride] | 59 | 85 | 97 |
| O=C1N(c2cccnc2)Cc2cc(-c3ccc(F)nc3)cn21 [Example 4, 6-(6-fluoropyridin-3-yl)-2-(pyridin-3-yl)-1H-pyrrolo[1,2-c]imidazol-3(2H)-one] | 51 | 52 |  |
| Cn1cc(N2Cc3cc(-c4ccc(N5CC[C@H](F)C5)nc4)cn3C2=O)cn1 [Example 5, (S)-6-(6-(3-fluoropyrrolidin-1-yl)pyridin-3-yl)-2-(1-methyl-1H-pyrazol-4-yl)-1,2-dihydro-3H-pyrrolo[1,2-c]imidazol-3-one Hydrogen Chloride Salt] | 87 | 102 |  |
| Cn1cc(N2Cc3cc(-c4ccc(N5CC[C@@H](F)C5)nc4)cn3C2=O)cn1 [Example 6, (R)-6-(6-(3-fluoropyrrolidin-1-yl)pyridin-3-yl)-2-(1-methyl-1H-pyrazol-4-yl)-1,2-dihydro-3H-pyrrolo[1,2-c]imidazol-3-one Hydrogen Chloride Salt] | 82 | 100 |  |
| O=C1N(c2cccnc2)Cc2cc(-c3ccc(N4CC[C@H](F)C4)nc3)cn21 [Example 7, (S)-6-(6-(3-fluoropyrrolidin-1-yl)pyridin-3-yl)-2-(pyridin-3-yl)-1,2-dihydro-3H-pyrrolo[1,2-c]imidazol-3-one Hydrogen Chloride Salt] | 69 | 85 |  |
